Reference: article PMC5215601, “Functional Characterization of the N-Terminal C2 Domain from Arabidopsis thaliana Phospholipase Dα and Dβ” (BioMed Research International, 2016)

How the values were obtained:
[1] = biological target: T1, C2β domain of AtPLDβ (mC2β) (Arabidopsis thaliana, UniProt P93733, F299V); assay: protein to dansyl-PE liposome FRET; lipid dot-blot; assay type: binding; conditions: 20 μM liposomes with 5% dansyl-PE, 1 μM domain, 50 mM HEPES pH 8, 30 °C; 0, 50 or 200 μM Ca2+
T1 construct: gene PLDBETA1; C2 domain cut to match mature-like C2α; forward primer encodes MVGRLPG (second codon F changed to V); C-terminal 6xHis kept
T1 sequence (P93733 298-418 F299V): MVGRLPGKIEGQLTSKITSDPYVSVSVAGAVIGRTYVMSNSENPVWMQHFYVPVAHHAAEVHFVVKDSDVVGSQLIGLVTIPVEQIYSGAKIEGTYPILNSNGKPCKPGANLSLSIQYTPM

[2] = biological target: T2, C2α domain of AtPLDα (mC2α) (Arabidopsis thaliana, UniProt Q38882); assay: protein to dansyl-PE liposome FRET; lipid dot-blot; assay type: binding; conditions: 20 μM liposomes with 5% dansyl-PE, 1 μM domain, 50 mM HEPES pH 8, 30 °C; 0, 50 or 200 μM Ca2+
T2 construct: gene PLDALPHA1; mature-like C2 domain lacking the N-terminal residues; forward primer encodes (M)ANVEET, extra Met added; last encoded residues before tag ...LQYFHVE by reverse primer; C-terminal 6xHis kept
T2 sequence (Q38882 35-152): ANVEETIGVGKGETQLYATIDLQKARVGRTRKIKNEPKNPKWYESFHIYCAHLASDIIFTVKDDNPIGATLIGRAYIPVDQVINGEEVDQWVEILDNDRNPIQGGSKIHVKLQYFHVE

AtPLDα-WT = biological target: T3, AtPLDα-WT (Arabidopsis thaliana, UniProt Q38882); assay: choline oxidase / peroxidase coupled colorimetric assay, […] nm; assay type: biochemical; conditions: crude P. pastoris extract; 266 μM POPC in SDS / Triton X-100 mixed micelles, 20 mM CaCl2, 50 mM Tris-HCl pH 8.0
T3 construct: gene PLDALPHA1; full-length cDNA, untagged, Pichia pastoris X-33; possibly N-glycosylated
T3 sequence (Q38882 36-810): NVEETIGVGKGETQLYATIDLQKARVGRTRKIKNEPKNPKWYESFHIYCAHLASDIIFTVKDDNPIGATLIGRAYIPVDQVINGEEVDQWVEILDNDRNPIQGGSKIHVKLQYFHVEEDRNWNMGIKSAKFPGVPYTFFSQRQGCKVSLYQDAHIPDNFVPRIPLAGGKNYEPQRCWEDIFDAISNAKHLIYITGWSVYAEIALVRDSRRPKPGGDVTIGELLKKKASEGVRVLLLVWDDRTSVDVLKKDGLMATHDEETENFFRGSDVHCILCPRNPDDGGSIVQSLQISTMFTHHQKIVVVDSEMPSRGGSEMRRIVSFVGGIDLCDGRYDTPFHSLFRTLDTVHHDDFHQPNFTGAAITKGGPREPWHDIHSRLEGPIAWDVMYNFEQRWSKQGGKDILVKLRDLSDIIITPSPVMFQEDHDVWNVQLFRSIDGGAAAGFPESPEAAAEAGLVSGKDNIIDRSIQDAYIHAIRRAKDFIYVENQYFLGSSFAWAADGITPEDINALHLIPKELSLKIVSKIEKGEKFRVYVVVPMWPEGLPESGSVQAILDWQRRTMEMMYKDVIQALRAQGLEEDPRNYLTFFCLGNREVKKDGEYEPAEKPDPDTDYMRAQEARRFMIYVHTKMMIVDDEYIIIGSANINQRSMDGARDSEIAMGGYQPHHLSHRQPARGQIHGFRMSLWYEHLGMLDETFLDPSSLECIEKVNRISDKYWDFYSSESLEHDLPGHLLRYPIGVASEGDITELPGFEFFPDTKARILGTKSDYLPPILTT

[3] = biological target: T1, C2β domain of AtPLDβ (mC2β); assay: protein to dansyl-PE liposome FRET; assay type: binding; conditions: 20 μM liposomes with 5% dansyl-PE, 1 μM domain, 50 mM HEPES pH 8, 30 °C; 0, 50 or 200 μM Ca2+

## CCCCCCCC/C=C\CCCCCCCC(=O)O[C@H](COC(=O)CCCCCCCCCCCCCCC)COP(=O)(O)O [PA, 1-palmitoyl-2-oleoyl-sn-glycero-3-phosphate]
[1]
  relative FRET: both C2 domains were found to bind anionic phospholipids (PA and PS)
[2]
  relative FRET: both C2 domains were found to bind anionic phospholipids (PA and PS)

## CCCCCCCC/C=C\CCCCCCCC(=O)O[C@H](COC(=O)CCCCCCCCCCCCCCC)COP(=O)([O-])OCC[N+](C)(C)C [PC, 1-Palmitoyl-2-oleoyl-sn-glycero-3-phosphocholine]
AtPLDα-WT
  PLD activity: crude extracts of P. pastoris transformed with the AtPLDα-WT exhibited a higher PLD activity

## CCCCCCCC/C=C\CCCCCCCC(=O)O[C@H](COC(=O)CCCCCCCCCCCCCCC)COP(=O)(O)OCC(O)CO (mixture of isomers) [PG, 1-Palmitoyl-2-oleoyl-sn-glycero-3-phospho-(1′-rac-glycerol)]
[2]
  relative FRET: both C2 domains showed a strong binding to PG vesicles
[3]
  relative FRET: both C2 domains showed a strong binding to PG vesicles
